Measured values: patent publication US20230406864A1, “7-AZOLE SUBSTITUTED 2-AMINOQUINAZOLINE INHIBITORS OF HPK1” (MERCK SHARP & DOHME LLC, priority 2020, published 2023)

target: T1, Human HPK1, catalytic domain (Homo sapiens, UniProt Q92918); experiment: HPK1-SLP76 TR-FRET assay; type: biochemical; conditions: HPK1 kinase domain 0.075 nM; full length SLP-76 10 nM; ATP 10 μM; 30 min preincubation; 60 min reaction; room temperature
T1 construct: purchased Cama (so in the source)
T1 sequence (Q92918 1-346): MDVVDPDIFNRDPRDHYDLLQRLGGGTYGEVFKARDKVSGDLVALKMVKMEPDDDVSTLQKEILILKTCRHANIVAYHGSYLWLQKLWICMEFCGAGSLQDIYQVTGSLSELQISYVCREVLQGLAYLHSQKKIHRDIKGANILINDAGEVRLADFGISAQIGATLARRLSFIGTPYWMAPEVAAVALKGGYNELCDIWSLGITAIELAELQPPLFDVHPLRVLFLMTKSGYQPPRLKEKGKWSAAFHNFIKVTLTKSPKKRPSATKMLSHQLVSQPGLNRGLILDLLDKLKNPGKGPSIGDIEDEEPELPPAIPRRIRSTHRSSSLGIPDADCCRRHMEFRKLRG

SMILES | IC50
Cc1c(-c2cc3nc(Nc4cnn(CS(C)(=O)=O)c4)ncc3c(N)c2F)cnc2c1NCCO2 [Example 2-42, 6-fluoro-7-(8-methyl-2,3-dihydro-1H-pyrido[2,3-b][1,4]oxazin-7-yl)-N2-(1-((methylsulfonyl)methyl)-1H-pyrazol-4-y)quinazoline-2,5-diamine] | 0.13 nM
Cc1c(-c2c(F)c(N)c3cnc(Nc4cnn(C5(C)CC5)c4)nc3c2Cl)cnc2c1NCCO2 [Example 2-43, (+ and −)-8-chloro-6-fluoro-N~2~-[1-(1-methylcyclopropyl)-1H-pyrazol-4-yl]-7-(8-methyl-2,3-dihydro-1H-pyrido[2,3-b][1,4]oxazin-7-yl)quinazoline-2,5-diamine] | 0.14 nM
Cc1c(-c2cc3nc(Nc4cnn(C5CCN(C)CC5)c4)ncc3c(N)c2F)cnc2c1NCCO2 [Example 2-44, 6-fluoro-7-(8-methyl-2,3-dihydro-1H-pyrido[2,3-b][1,4]oxazin-7-yl)-N~2~-[1-(1-methylpiperidin-4-yl)-1H-pyrazol-4-yl]quinazoline-2,5-diamine] | 0.045 nM
Cc1c(-c2cc3nc(Nc4cnn(C5CC5)c4C)ncc3c(N)c2F)cnc2c1NCCO2 [Example 2-45, N~2~-(1-cyclopropyl-5-methyl-1H-pyrazol-4-yl)-6-fluoro-7-(8-methyl-2,3-dihydro-1H-pyrido[2,3-b][1,4]oxazin-7-yl)quinazoline-2,5-diamine] | 0.18 nM
Cc1c(-c2cc3nc(Nc4cnn(C56CC(C(C)(C)O)(C5)C6)c4)ncc3c(N)c2F)cnc2c1NCCO2 [Example 2-46, 2-[3-(4-{[5-amino-6-fluoro-7-(8-methyl-2,3-dihydro-1H-pyrido[2,3-b][1,4]oxazin-7-yl)quinazolin-2-yl]amino}-1H-pyrazol-1-yl)bicyclo[1.1.1]pentan-1-yl]propan-2-ol] | 0.051 nM
Cc1c(-c2cc3nc(Nc4cnn([C@H]5CCN(C)C5)c4)ncc3c(N)c2F)cnc2c1NCCO2 [Example 2-47, (S)-6-fluoro-7-(8-methyl-2,3-dihydro-1H-pyrido[2,3-b][1,4]oxazin-7-yl)-N2-(1-(1-methylpyrrolidin-3-yl)-1H-pyrazol-4-yl)quinazoline-2,5-diamine] | 0.177 nM
Cc1c(-c2cc3nc(Nc4cnn([C@@H]5CCN(C)C5)c4)ncc3c(N)c2F)cnc2c1NCCO2 [Example 2-48, (R)-6-fluoro-7-(8-methyl-2,3-dihydro-1H-pyrido[2,3-b][1,4]oxazin-7-yl)-N2-(1-(1-methylpyrrolidin-3-yl)-1H-pyrazol-4-yl)quinazoline-2,5-diamine] | 0.166 nM
